Source: patent publication US7084133B2, “Dicarba-closo-dodecaborane derivatives” (priority 2001, dated 2006)

Tested on: promyelocytic leukemia strain HL-60
Assay: Test for induction of cell differentiation in HL-60 cells (NBT reducing ability), compound alone or with coexistence of VD3
Assay type: cell-based
Conditions: compound alone
Procedure: Cell differentiation-inducing action was examined for each of the compounds obtained in the examples alone or with the coexistence of 1×10^−8 M1α,25-dihydroxyvitamin D3 (VD3). According to the method described in Japanese Patent Unexamined Publication (Kokai) No. 61–76440, cell differentiation of promyelocytic leukemia strain HL-60 into granulocytic series was determined based on morphological change and measurement of ability to reduce nitroblue tetrazolium (NBT). The values in the table indicate ratios (%) of differentiated cells calculated from the NBT reducing ability, and the row represented by “VD3” indicates the results obtained by using vitamin D3.

C=C1/C(=C\C=C2/CCC[C@]3(C)[C@@H]([C@H](C)CCCC(C)(C)O)CC[C@@H]23)C[C@@H](O)C[C@@H]1O [VD3, 1α,25-dihydroxyvitamin D3]
ratios (%) of differentiated cells calculated from the NBT reducing ability (Log Concentration (M) −7): 75% | ratios (%) of differentiated cells calculated from the NBT reducing ability (Log Concentration (M) −8): 41% | ratios (%) of differentiated cells calculated from the NBT reducing ability (Log Concentration (M) −9): 7%
